# Experimental data taken from the supplement of paper PMC10307832.
# Experiments:
# Test in all cases: relative viability (nuclei count vs DMSO), 5 days (fraction); higher = more cells survive
# 201T = test system: 201T
# Summary of the method: (§1)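 Relative viability is defined as nuclei in treated wells over nuclei in vehicle wells. Duplicate plates were run and medians reported. Lung cancer cell lines in 1536-well plates were dosed by pin tool one day after seeding, with one drug or with a fixed anchor-drug dose plus five library-drug doses (not always all listed) in √10 steps, and nuclei were counted after 5 days.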
# BEN = test system: BEN
# Summary of the method: as §1
# CAL-12T = test system: CAL-12T
# Summary of the method: as §1
# HCC-827 = test system: HCC-827
# Summary of the method: as §1
# LCLC-103H = test system: LCLC-103H
# Summary of the method: as §1
# LCLC-97TM1 = test system: LCLC-97TM1
# Summary of the method: as §1
# LXF-289 = test system: LXF-289
# Summary of the method: as §1
# NCI-H1395 = test system: NCI-H1395
# Summary of the method: as §1
# NCI-H1437 = test system: NCI-H1437
# Summary of the method: as §1
# NCI-H1792 = test system: NCI-H1792
# Summary of the method: as §1
# NCI-H1793 = test system: NCI-H1793
# Summary of the method: as §1
# NCI-H1944 = test system: NCI-H1944
# Summary of the method: as §1
# NCI-H2087 = test system: NCI-H2087
# Summary of the method: as §1
# NCI-H2405 = test system: NCI-H2405
# Summary of the method: as §1
# NCI-H3122 = test system: NCI-H3122
# Summary of the method: as §1
# NCI-H322M = test system: NCI-H322M
# Summary of the method: as §1
# NCI-H647 = test system: NCI-H647
# Summary of the method: as §1
# NCI-H727 = test system: NCI-H727
# Summary of the method: as §1
# RERF-LC-KJ = test system: RERF-LC-KJ
# Summary of the method: as §1
smiles,measurement,setting,value
CCN(CC)CCCCNc1ncc2cc(-c3cc(OC)cc(OC)c3)c(NC(=O)NC(C)(C)C)nc2n1 + NC(=O)Nc1cc(-c2cccc(F)c2)sc1C(=O)N[C@H]1CCCNC1 [AZD7762] (partner 0.2 µM),relative viability,201T; first compound 0.01 µM,0.747
same,relative viability,201T; first compound 0.03162 µM,0.617
same,relative viability,201T; first compound 0.1 µM,0.68
same,relative viability,201T; first compound 0.3162 µM,0.685
same,relative viability,201T; first compound 1 µM,0.758
same,relative viability,BEN; first compound 0.01 µM,0.669
same,relative viability,BEN; first compound 0.03162 µM,0.61
same,relative viability,BEN; first compound 0.1 µM,0.703
same,relative viability,BEN; first compound 0.3162 µM,0.757
same,relative viability,BEN; first compound 1 µM,0.676
same,relative viability,CAL-12T; first compound 0.01 µM,0.594
same,relative viability,CAL-12T; first compound 0.03162 µM,0.564
same,relative viability,CAL-12T; first compound 0.1 µM,0.796
same,relative viability,CAL-12T; first compound 0.3162 µM,0.758
same,relative viability,CAL-12T; first compound 1 µM,0.641
same,relative viability,HCC-827; first compound 0.01 µM,0.222
same,relative viability,HCC-827; first compound 0.03162 µM,0.249
same,relative viability,HCC-827; first compound 0.1 µM,0.217
same,relative viability,HCC-827; first compound 0.3162 µM,0.236
same,relative viability,HCC-827; first compound 1 µM,0.196
same,relative viability,LCLC-103H; first compound 0.01 µM,0.926
same,relative viability,LCLC-103H; first compound 0.03162 µM,0.843
same,relative viability,LCLC-103H; first compound 0.1 µM,0.824
same,relative viability,LCLC-103H; first compound 0.3162 µM,0.83
same,relative viability,LCLC-103H; first compound 1 µM,0.705
same,relative viability,LCLC-97TM1; first compound 0.03162 µM,0.384
same,relative viability,LCLC-97TM1; first compound 0.1 µM,0.275
same,relative viability,LCLC-97TM1; first compound 0.3162 µM,0.234
same,relative viability,LCLC-97TM1; first compound 1 µM,0.227
same,relative viability,LXF-289; first compound 0.01 µM,1.07
same,relative viability,LXF-289; first compound 0.03162 µM,1.18
same,relative viability,LXF-289; first compound 0.1 µM,1.16
same,relative viability,LXF-289; first compound 0.3162 µM,0.946
same,relative viability,LXF-289; first compound 1 µM,0.956
same,relative viability,NCI-H1395; first compound 0.01 µM,0.402
same,relative viability,NCI-H1395; first compound 0.03162 µM,0.338
same,relative viability,NCI-H1395; first compound 0.1 µM,0.422
same,relative viability,NCI-H1395; first compound 0.3162 µM,0.392
same,relative viability,NCI-H1395; first compound 1 µM,0.309
same,relative viability,NCI-H1437; first compound 0.01 µM,1.2
same,relative viability,NCI-H1437; first compound 0.03162 µM,1.07
same,relative viability,NCI-H1437; first compound 0.1 µM,1.17
same,relative viability,NCI-H1437; first compound 0.3162 µM,1.17
same,relative viability,NCI-H1437; first compound 1 µM,1.04
same,relative viability,NCI-H1792; first compound 0.01 µM,0.817
same,relative viability,NCI-H1792; first compound 0.03162 µM,0.408
same,relative viability,NCI-H1792; first compound 0.1 µM,0.749
same,relative viability,NCI-H1792; first compound 0.3162 µM,0.673
same,relative viability,NCI-H1792; first compound 1 µM,0.586
same,relative viability,NCI-H1793; first compound 0.01 µM,0.541
same,relative viability,NCI-H1793; first compound 0.03162 µM,0.581
same,relative viability,NCI-H1793; first compound 0.1 µM,0.601
same,relative viability,NCI-H1793; first compound 0.3162 µM,0.326
same,relative viability,NCI-H1793; first compound 1 µM,0.319
same,relative viability,NCI-H1944; first compound 0.01 µM,0.474
same,relative viability,NCI-H1944; first compound 0.03162 µM,0.86
same,relative viability,NCI-H1944; first compound 0.1 µM,0.513
same,relative viability,NCI-H1944; first compound 0.3162 µM,0.505
same,relative viability,NCI-H1944; first compound 1 µM,0.494
same,relative viability,NCI-H2087; first compound 0.01 µM,1.21
same,relative viability,NCI-H2087; first compound 0.03162 µM,1.31
same,relative viability,NCI-H2087; first compound 0.1 µM,1.34
same,relative viability,NCI-H2087; first compound 0.3162 µM,1.29
same,relative viability,NCI-H2087; first compound 1 µM,1.18
same,relative viability,NCI-H2405; first compound 0.01 µM,0.792
same,relative viability,NCI-H2405; first compound 0.03162 µM,0.734
same,relative viability,NCI-H2405; first compound 0.1 µM,0.812
same,relative viability,NCI-H2405; first compound 0.3162 µM,0.803
same,relative viability,NCI-H2405; first compound 1 µM,0.628
same,relative viability,NCI-H3122; first compound 0.01 µM,1
same,relative viability,NCI-H3122; first compound 0.03162 µM,0.987
same,relative viability,NCI-H3122; first compound 0.1 µM,1.08
same,relative viability,NCI-H3122; first compound 0.3162 µM,0.971
same,relative viability,NCI-H3122; first compound 1 µM,1.06
same,relative viability,NCI-H322M; first compound 0.01 µM,0.578
same,relative viability,NCI-H322M; first compound 0.03162 µM,0.52
same,relative viability,NCI-H322M; first compound 0.1 µM,0.59
same,relative viability,NCI-H322M; first compound 0.3162 µM,0.728
same,relative viability,NCI-H322M; first compound 1 µM,0.559
same,relative viability,NCI-H647; first compound 0.01 µM,0.272
same,relative viability,NCI-H647; first compound 0.03162 µM,0.612
same,relative viability,NCI-H647; first compound 0.1 µM,0.495
same,relative viability,NCI-H647; first compound 0.3162 µM,0.476
same,relative viability,NCI-H647; first compound 1 µM,0.247
same,relative viability,NCI-H727; first compound 0.01 µM,0.766
same,relative viability,NCI-H727; first compound 0.03162 µM,0.63
same,relative viability,NCI-H727; first compound 0.1 µM,0.677
same,relative viability,NCI-H727; first compound 0.3162 µM,0.791
same,relative viability,NCI-H727; first compound 1 µM,0.667
same,relative viability,RERF-LC-KJ; first compound 0.01 µM,0.919
same,relative viability,RERF-LC-KJ; first compound 0.03162 µM,1.04
same,relative viability,RERF-LC-KJ; first compound 0.1 µM,0.983
same,relative viability,RERF-LC-KJ; first compound 0.3162 µM,1.28
same,relative viability,RERF-LC-KJ; first compound 1 µM,1.1
